Results: ChEMBL document CHEMBL2029340 (J Med Chem, 2012)
Calls of active or inactive are those of the source. No cut-off for these calls is given here.

Columns and labels:
Influenza A virus [1] = assay: Antiviral activity against Influenza A virus […] infected in MDCK cells assessed as inhibition of virus-induced cytopathic effects after 3 days by CCK-8 assay; type: functional, organism-based; details: 72 h
Influenza A virus [2] = assay: Antiviral activity against Influenza A virus A/Brisbane/10/2007 (H3N2) infected in MDCK cells assessed as inhibition of virus-induced cytopathic effects after 3 days by CCK-8 assay; type: functional, organism-based; details: 72 h
Influenza A virus [3] = assay: Antiviral activity against Influenza A virus A/udorn/1972 (H3N2) infected in MDCK cells assessed as inhibition of virus-induced cytopathic effects after 3 days by CCK-8 assay; type: functional, organism-based; details: 72 h
Influenza A virus [4] = assay: Antiviral activity against Influenza A virus A/Mal/302/54 (H1N1) infected in MDCK cells assessed as inhibition of virus-induced cytopathic effects after 3 days by CCK-8 assay; type: functional, organism-based; details: 72 h
Influenza A virus [5] = assay: Antiviral activity against Influenza A virus A/WSN/33 (H1N1) infected in MDCK cells assessed as inhibition of nucleoprotein accumulation in nucleus at 10 uM after 4 hrs by fluorescent microscopy; type: functional, organism-based; details: A/WSN/1933(H1N1)
[6] = Cytotoxicity against MDCK cells after 3 days by CCK-8 assay; type: cell-based, Canis lupus familiaris; details: dog
Influenza A virus [7] = assay: Antiviral activity against Influenza A virus A/Weiss/43 (H1N1) infected in MDCK cells assessed as inhibition of virus-induced cytopathic effects after 3 days by CCK-8 assay; type: functional, organism-based, Influenza A virus (A/Weiss/1943(H1N1)); details: 72 h
Influenza A virus [8] = assay: Antiviral activity against Influenza A virus A/Guangzhou/2009 (H1N1) infected in MDCK cells assessed as inhibition of virus-induced cytopathic effects after 3 days by CCK-8 assay; type: functional, organism-based; details: 72 h
Influenza A virus [9] = assay: Antiviral activity against Influenza A virus A/Guangdong/96 (H9N2) infected in MDCK cells assessed as inhibition of virus-induced cytopathic effects after 3 days by CCK-8 assay; type: functional, organism-based; details: 72 h
Influenza A virus [10] = assay: Antiviral activity against Influenza A virus A/HK/8/68(H3N2) infected in MDCK cells assessed as inhibition of virus-induced cytopathic effects after 3 days by CCK-8 assay; type: functional, organism-based; details: 72 h

Row | SMILES | CC50 at 72 h [6] | IC50 (Influenza A virus [10]) | further results
1 | COc1ccccc1-n1nnc(C)c1C(=O)N1CCN(c2ccc([N+](=O)[O-])cc2Cl)CC1 | > 100 µM | 1.97 µM | IC50 (Influenza A virus [1]): 1.86 µM; IC50 (Influenza A virus [2]): > 50 µM; IC50 (Influenza A virus [3]): 1.17 µM; IC50 (Influenza A virus [4]): 0.9 µM; inhibition (Influenza A virus [5]): Active; IC50 (Influenza A virus [7]): 0.66 µM; IC50 (Influenza A virus [8]): 0.52 µM; IC50 (Influenza A virus [9]): 4.62 µM
2 | CCOc1ccccc1-n1nnc(C)c1C(=O)N1CCN(c2ccc([N+](=O)[O-])cc2Cl)CC1 | > 100 µM | 8.97 µM | 
3 | Cc1nnn(-c2ccc(Cl)cc2)c1C(=O)N1CCN(c2ccc([N+](=O)[O-])cc2Cl)CC1 | > 100 µM | > 50 µM | 
4 | Cc1ccccc1-n1nnc(C)c1C(=O)N1CCN(c2ccc([N+](=O)[O-])cc2Cl)CC1 | > 100 µM | 4.92 µM | 
5 | COc1ccccc1-c1ccccc1C(=O)N1CCN(c2ccc([N+](=O)[O-])cc2Cl)CC1 |  | 3.68 µM | 
6 | COc1cccc(-n2nnc(C)c2C(=O)N2CCN(c3ccc([N+](=O)[O-])cc3Cl)CC2)c1 | > 100 µM | 13.8 µM | 
7 | Cc1nnn(-c2ccccc2OC(C)C)c1C(=O)N1CCN(c2ccc([N+](=O)[O-])cc2Cl)CC1 | > 100 µM | 16.2 µM | 
8 | COc1ccccc1-n1nnc(C)c1C(=O)N1CCN(c2ccccc2)CC1 | > 100 µM | > 50 µM | 
9 | COc1ccccc1-n1nnc(C)c1C(=O)N1CCN(c2ccc([N+](=O)[O-])cc2)CC1 | > 100 µM | > 50 µM | 
10 | COc1ccccc1-n1nnc(C)c1C(=O)N1CCCN(c2ccc([N+](=O)[O-])cc2Cl)CC1 | > 100 µM | > 50 µM | 
11 | Cc1nnn(-c2ccccc2O)c1C(=O)N1CCN(c2ccc([N+](=O)[O-])cc2Cl)CC1 | > 100 µM | 7.84 µM | 
12 | Cc1[nH]nc(-c2ccccc2Cl)c1C(=O)N1CCN(c2ccc([N+](=O)[O-])cc2Cl)CC1 |  | 2.87 µM | 
13 | Cc1nnn(-c2cccc(Cl)c2)c1C(=O)N1CCN(c2ccc([N+](=O)[O-])cc2Cl)CC1 | > 100 µM | 9.38 µM | 
14 | Cc1noc(-c2ccccc2)c1C(=O)N1CCN(c2ccc([N+](=O)[O-])cc2Cl)CC1 |  | 6 µM | 
15 | COc1ccccc1-n1nnc(C)c1C(=O)N1CCN(c2ccccc2Cl)CC1 | > 100 µM | > 50 µM | 
16 | Cc1nnn(-c2ccccc2)c1C(=O)N1CCN(c2ccc([N+](=O)[O-])cc2Cl)CC1 | > 100 µM | 5.16 µM | 
17 | Cc1nnn(-c2ccccc2Cl)c1C(=O)N1CCN(c2ccc([N+](=O)[O-])cc2Cl)CC1 | > 100 µM | 5.65 µM | 
18 | O=C(c1ccccc1-c1ccccc1)N1CCN(c2ccc([N+](=O)[O-])cc2Cl)CC1 |  | 7.61 µM | 
19 | COc1cc([N+](=O)[O-])ccc1N1CCN(C(=O)c2c(C)nnn2-c2ccccc2OC)CC1 | > 100 µM | > 50 µM | 
20 | COc1ccccc1-c1onc(C)c1C(=O)N1CCN(c2ccc([N+](=O)[O-])cc2Cl)CC1 |  | 2.62 µM | 
21 | COc1ccccc1-n1nncc1C(=O)N1CCN(c2ccc([N+](=O)[O-])cc2Cl)CC1 | > 100 µM | > 50 µM | 
22 | Cc1[nH]nc(-c2ccccc2)c1C(=O)N1CCN(c2ccc([N+](=O)[O-])cc2Cl)CC1 |  | 8.64 µM | 
23 | COc1cccc(OC)c1-n1nnc(C)c1C(=O)N1CCN(c2ccc([N+](=O)[O-])cc2Cl)CC1 | > 100 µM | 2.42 µM | 
24 | NC12CC3CC(CC(C3)C1)C2 [AMANTADINE] | > 100 µM | 2.22 µM | 
25 | CCc1nnn(-c2ccccc2OC)c1C(=O)N1CCN(c2ccc([N+](=O)[O-])cc2Cl)CC1 | > 100 µM | > 50 µM | 
26 | CC(=O)c1ccccc1-n1nnc(C)c1C(=O)N1CCN(c2ccc([N+](=O)[O-])cc2Cl)CC1 | > 100 µM | 14.8 µM | 
27 | COc1ccc(-n2nnc(C)c2C(=O)N2CCN(c3ccc([N+](=O)[O-])cc3Cl)CC2)cc1 | > 100 µM | 14.7 µM | 
28 | Cc1onc(-c2ccccc2)c1C(=O)N1CCN(c2ccc([N+](=O)[O-])cc2Cl)CC1 [NUCLEOZIN] | 15.9 µM | 1.08 µM | IC50 (Influenza A virus [1]): 1.59 µM; IC50 (Influenza A virus [2]): 12.4 µM; IC50 (Influenza A virus [3]): 0.34 µM; IC50 (Influenza A virus [4]): 0.52 µM; IC50 (Influenza A virus [7]): 0.2 µM; IC50 (Influenza A virus [8]): 0.54 µM; IC50 (Influenza A virus [9]): 3.87 µM
